This experiment relates to Meloidogyne incognita. Description: Meloidogyne incognita test (MELGIN): gall formation on salad seedlings in sand. The experiment is classed as in vivo. Particulars: 504 h, eggs and larvae of Meloidogyne incognita, salad seeds in sand, 100% = no galls, read-out: Mortality in % after 21 d. Here is the method: Meloidogyne incognita—Test (MELGIN)
Solvent: 125.0 parts by weight of acetone
To produce a suitable preparation of active compound, 1 part by weight of active compound is mixed with the stated amount of solvent, and the concentrate is diluted with water to the desired concentration. The preparation of the bacteria, fungi or yeast products contains 10^9-10^10 spores/g or cells/g. To produce a suitable preparation of a biological suspension the cells or spores are diluted with emulsifier-containing water to the desired concentration.
Vessels are filled with sand, a solution of the active ingredient, a suspension containing eggs and larvae of Meloidogyne incognita and salad seeds. The salad seeds germinate and the seedlings grow. Galls develop in the roots.
After the specified period of time the nematicidal activity is determined on the basis of the percentage of gall formation. When Meloidogyne incognita attacks roots of plants, it deforms the normal root cells and establishes giant cells and consequently the attacked roots form galls. 100% means that no galls were found; 0% means that the number of galls found on the roots of the treated plants was equal to that in untreated control plants.

On to `O=C(NCCc1ncc(C(F)(F)F)cc1Cl)c1ccccc1C(F)(F)F` [Fluopyram], for which the gall reduction efficacy at 0.0005 ppm came out at 0%.

The values are drawn from patent US9433214B2, “Active compounds combination containing fluopyram Bacillus and biologically control agent” (BAYER INTELLECTUAL PROPERTY GMBH, priority 2012, dated 2016).
